Test results as given in patent US20090234017A1, “TREATING SKIN DISORDERS” (priority 2005, published 2009).

Test system: psoriasis
Test: Case report: psoriasis in a patient treated with midodrine for hypotension

SMILES: COc1ccc(OC)c(C(O)CNC(=O)CN)c1 (centres unmarked) [midodrine]
- improvement of the patient's psoriasis (person with moderate psoriasis, midodrine five mg three times a day for three months): ≥ 90%
- psoriasis after discontinuing use of midodrine (same patient, after discontinued use of midodrine): psoriasis returned
